“Also recorded” adds a separate entry of the source.
Key:
FAK FAT domain = tested on: FAK FAT domain; design: method as in PMID 40021642; settings: ref [5]; cited from earlier work
Paxillin = assay: Pulldown (MS and WB), SK-MEL-147 lysate; format: binding
Description: 3000ug of SK-MEL-147 lysates were precleared in 60uL agarose beads for 1 h at 4C. […] Beads were washed with NP40 buffer without inhibitors and proteins were eluted using 63 mM Tris pH 6.8 and 5 % SDS. Elution proteins underwent trypsin digestion and were analyzed in nanoLC-MS/MS at the UA Biological Mass Spectroscopy Core using the Thermo Q Exactive Orbitrap mass spectrometer (MS) coupled to the Thermo Vanquish Neo nano-LC system. Peptide sequences were determined, correlated to SwissProt protein sequences, and normalized in Scaffold Proteomics Discoverer.
Protein Label Free Quantification (LFQ) was represented by Normalized Total Spectra. Fold Enrichment (FE) was calculated using Eq. (1): FE=(PulldownLFQ−EthanolamineControlBeadLFQ)/TotalLysateLFQ
Bead elutions were ran on a 4–20 % TGX Stain Free Gel and imaged via Stain Free Imaging (ChemDoc Biorad Imager) before transfer onto a PVDF membrane (TurboTransfer High MW). Blots were blocked using 5 % BSA in TBS-0.1 % Tween-20. Each primary antibody was used in 1:1000 dilution and incubated overnight at 4C. Blots were washed 3X and incubated in 1:5000 secondary antibody at RT for 1 h. Blots were incubated with ECL reagent (Biorad) for 5 min. Blots were imaged utilizing ChemDoc Biorad Imager for 3 min taking 60 total images. Results can be found in Supplementary Fig. 2.

[1] = tested on: FA selectivity panel (VinT, VinH, PARVA, PARVB, Talin-1 Rod 8, FAK FAT); assay: SPR focal adhesion selectivity panel; format: binding
Text: (§1) Vinculin Tail (VinT) (a.a. 811–1066), Vinculin Head (VinH) (a.a. 1–258), Actopaxin, (PARVA complete protein), beta-parvin (PARVB, total protein), FAK FAT (a.a. 892–1052), and Talin-1 Rod 8 (a.a. 1453–1580) were purified in E. coli BL21 DE3 using 6X-Histag TOPO-100 plasmid constructs with AmpR gene (ThermoFisher). Purification procedures were as previously described. Proteins were purified using NiNTA affinity chromatography (ThermoFisher) followed by size-exclusion chromatography using the Akta Pump 900 system and HiLoad 26/600 SuperDex 75 pg column. Major peaks (Unicorn 3.0 software) were validated using SDS-PAGE stain free imaging (Biorad).
SPR was performed on a Sartorius Pioneer FE instrument as previously described. Briefly, biotinylated UA-1907 was immobilized onto Streptavidin Dextran Hydrogel (SADH) biosensor at a RU = 50. Proteins were flowed over at 75 μL/min in running buffer (50 mM Tris pH 8.0, 200 mM NaCl, 5 % glycerol) from 2.5 μM to 4.9 nM. Equilibrium dissociation constant (KD) was calculated using Qdat software and 1:1 kinetic binding model.

FAK-paxillin interaction = settings: cellular and biochemical systems; ref [5]; cited from earlier work
FAK FAT (a.a. 892–1052) = biological target: T1, FAK FAT (a.a. 892–1052) (Homo sapiens, UniProt Q05397); assay: SPR direct binding; settings: 4.9 nM to […]
T1 construct: FAK FAT (a.a. 892–1052); 6X His (N); made in house; host or cells: E. coli BL21 DE3
T1 sequence (Q05397 892-1052): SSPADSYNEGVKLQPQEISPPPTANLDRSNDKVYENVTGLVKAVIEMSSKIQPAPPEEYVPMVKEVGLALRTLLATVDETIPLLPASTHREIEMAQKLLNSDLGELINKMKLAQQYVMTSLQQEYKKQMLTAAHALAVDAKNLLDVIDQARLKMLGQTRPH
Text: as §1
SPR was performed on a Sartorius Pioneer FE instrument as previously described. Briefly, biotinylated UA-1907 was immobilized onto Streptavidin Dextran Hydrogel (SADH) biosensor at a RU = 50. […] Equilibrium dissociation constant (KD) was calculated using Qdat software and 1:1 kinetic binding model.

[2] = ref [5]; cited from earlier work
Text: (§2) The most significant finding in this manuscript is the nanomolar, highly specific affinity (Fig. 4g) between UA-1907 and the FAK FAT domain by SPR, but not […], PARVA, PARVB, VinH, and VinT. As previously discussed, the challenge of targeting FAK historically has been the off-target effects of ATP-competitive kinase inhibitors. […] The high selectivity of the FAT domain t ...

kinome = settings: ref [5]; cited from earlier work
Text: as §2

Compound: CC(=O)N[C@@H](CC(N)=O)C(=O)N[C@@H](CC(C)C)C(=O)N[C@]1(C)CCCCCC/C=C/CCC[C@@](C)(C(=O)N[C@@H](CCC(=O)O)C(=O)N[C@@H](CC(C)C)C(=O)N[C@@H](CC(N)=O)C(N)=O)NC(=O)[C@H](CC(C)C)NC(=O)[C@H](CC(C)C)NC(=O)[C@H](CCCNC(=N)N)NC(=O)[C@H](CC(=O)O)NC(=O)[C@H](CC(C)C)NC(=O)[C@H](CCC(=O)O)NC1=O [UA-1907]
- binding to FAK FAT domain (FAK FAT domain): binds the FAK FAT domain with high affinity
- paxillin pulldown (Paxillin): paxillin did not pulldown with UA-1907
- binding selectivity across panel [1]: only the FAK-FAT domain has a nanomolar binding affinity (KD) for UA-1907, whereas other FA proteins have no binding; also recorded: strong nanomolar binding affinity to the FAT domain of FAK, while minimal affinity to other FA proteins
- inhibition of FAK-paxillin interaction (FAK-paxillin interaction): dose-dependently inhibits the FAK-paxillin interaction
- binding (FAK FAT (a.a. 892–1052)): bound to UA-1907 in a dose-dependent manner

Compound: CNC(=O)c1ccc(Nc2ncc(C(F)(F)F)c(NCc3nccnc3N(C)S(C)(=O)=O)n2)cc1 [defactinib]
- cellular toxicity [2]: high cellular toxicity
- kinome selectivity (kinome): poor kinome selectivity
